# Assay results: patent publication US20160184254A1, “COMPOSITIONS COMPRISING VITAMIN K DERIVATIVES AND SALTS” (KAPPA BIOSCIENCE AS, priority 2013, published 2016)
# Columns and labels:
# [1] = Light stability in ethyl acetate (HPLC % area); format: physicochemical; conditions: for After 19 hrs % / Initial %: clear glass vial; for After 19 hrs %: 19 hours ordinary room lighting, HPLC % area; for Initial %: before light exposure, HPLC % area of total peak area
# Procedure: (§1) The light stability of MK-7 was compared to compounds of the invention as hereinbefore described. Compounds were dissolved separately in ethyl acetate or MCT oil, transferred to glass vial (clear glass) and placed on the bench in a well lit laboratory (ordinary room lighting). The samples were analyzed after 19 hours of light exposure or more.
# (§2) The samples were analyzed by HPLC using aHPLC_KB_001, with the HPLC conditions detailed below. • HPLC-DAD high pressure system: Agilent, LC system 1100 series • Analytical column: Supelcosil C-18, 4.6×250 mm, 5 μm • Column temperature: 40° C. • Flow rate: 1 mL/min • Injection volume: 8 μL • UV-detection: 270 nm/340 nm • Run time: 20 min • Eluent system: 50% Solvent C: MeOH/Water with 0.1% v/v acetic acid (95/5 v/v) 50% Solvent D: Isopropanol
# (§3) The content of MK-7 and the MK-7 derivative in the samples have been quantified as % area of the total peak area in the chromatogram. […] Note that examples 2a and 2b show the synergistic behaviour discussed after table 2.
# [2] = In vivo testing in rats: MK-7 in plasma after oral gavage; set-up: species or system male Sprague Dawley Rats
# Procedure: Male Rats aged 6 to 8 weeks and weighing around 180 to 225 g. Animals were fasted overnight with free access to water. Animals were administered test substance by oral gavage with a dose of 100 μg/kg body weight (in recommended formulation and dose volume). Blood samples (150-200 μl) were collected at various time points during the next 48 hours post dose. To determine the bioavailability of different formulations containing MK-7 in male e Sprague Dawley Rats through gavage. Formulations were both dissolved in sunflower oil. Approximately 0.4 ml/animal (depending on the weight of the animal) via oral gavage (100 μg/kg body weight). There were 6 animals per formulation. Blood samples were collected from the tail vein of each animal and transferred into lithium heparin tubes at 2 and 12 hours post dose. Quantification of analyte in plasma was determined by LC-MS-MS analysis: Analyte: MK-7 in plasma. The data are mean of four measurements (low and high values are not included).
# [3] = Calcium salt composition: recovery from tablet after direct compression; format: physicochemical; conditions: for compatibility with calcium in the formulation process: formulated together with calcium salts; for recovered from the tablet after formulation: magnesium stearate, MCC, compared to amount pre-formulation
# Procedure: We combined 47 mg of a 0.19 wt % formulation of the MK-7 derivative of Example 16 (diacetate) in microcrystalline cellulose MCC with 645 mg of 90 wt % calcium carbonate, […] of magnesium stearate and 745 mg of MCC and formulated tablets of this blend using direct compression.
# After formulation we recovered the MK-7 derivative from the tablet. We recovered 88 wt % of the derivative from the tablet.
# The same experiment was repeated using identical conditions other than the use of MK-7 rather than the MK-7 derivative. We recovered 77.6 wt % of MK7 from the tablet compared to the amount pre-formulation. We show therefore that the loss of MK7 during tableting process is 23%.
# [4] = Light stability in MCT oil (HPLC % area); format: physicochemical; conditions: 24 hours light exposure
# Procedure: as §1, §2, §3
# [5] = tablet with calcium carbonate, direct compression
After 19 hrs % ([1]; in ethyl acetate),Initial % ([1]; in ethyl acetate),serum level 12 hours after administration compared with MK-7 [2],degradation after 24 hours of light exposure [4],reduction in the amount present after tabletting ([3]; directly compressed with excipients such as calcium or magnesium),"loss during tableting process [3, 5]",light degradation in ethyl acetate compared with MCT oil ([1]; in ethyl acetate),"degradation after 19 hours of light exposure ([1]; in solution (ethyl acetate, Table 1), 19 hours light exposure)",SMILES,compatibility with calcium in the formulation process [3],"recovered from the tablet after formulation [3, 5]",compatibility with calcium in the formulation process ([3]; listed as MK7)
95.4%,98.5%,,,,,,,"CC(C)=CCC/C(C)=C/CC/C(C)=C/CC/C(C)=C/CC/C(C)=C/CC/C(C)=C/CC/C(C)=C/Cc1c(C)c(OC(=O)c2ccccc2)c2ccccc2c1OC(=O)c1ccccc1 [Example 1, 2-((2E,6E,10E,14E,18E,22E)-3,7,11,15,19,23,27-heptamethyl-octacosa-2,6,10,14,18,22,26-heptaen-1-yl)-3-methylnaphthalene-1,4-diyl dibenzoate]",,,
,,the same,,,,,,"CCC(=O)Oc1c(C)c(C/C=C(\C)CC/C=C(\C)CC/C=C(\C)CC/C=C(\C)CC/C=C(\C)CC/C=C(\C)CCC=C(C)C)c(OC(=O)CC)c2ccccc12 [Example 7, 2-((2E,6E,10E,14E,18E,22E)-3,7,11,15,19,23,27-heptamethyloctacosa-2,6,10,14,18,22,26-heptaen-1-yl)-3-methylnaphthalene-1,4-diyl dipropionate]",,,
53.7%,99.4%,,approximately 70%,up to 30%,23%,degrades even more rapidly,approximately 50%,"CC(C)=CCC/C(C)=C/CC/C(C)=C/CC/C(C)=C/CC/C(C)=C/CC/C(C)=C/CC/C(C)=C/CC1=C(C)C(=O)c2ccccc2C1=O [MK-7, 2-((2E,6E,10E,14E,18E,22E)-3,7,11,15,19,23,27-Heptamethyloctacosa-2,6,10,14,18,22,26-heptaen-1-yl)-3-methylnaphthalene-1,4-dione]",degrades rapidly,77.6 wt %,degrades in the formulation process together with calcium

SMILES,After 19 hrs % ([1]; in ethyl acetate),Initial % ([1]; in ethyl acetate),serum level 12 hours after administration compared with MK-7 [2],degradation after 24 hours of light exposure [4],reduction in the amount present after tabletting ([3]; directly compressed with excipients such as calcium or magnesium),"loss during tableting process [3, 5]",light degradation in ethyl acetate compared with MCT oil ([1]; in ethyl acetate),"degradation after 19 hours of light exposure ([1]; in solution (ethyl acetate, Table 1), 19 hours light exposure)",compatibility with calcium in the formulation process [3],"recovered from the tablet after formulation [3, 5]",compatibility with calcium in the formulation process ([3]; listed as MK7)
CC(=O)Oc1c(C)c(C/C=C(\C)CC/C=C(\C)CC/C=C(\C)CC/C=C(\C)CC/C=C(\C)CC/C=C(\C)CCC=C(C)C)c(OC(C)=O)c2ccccc12 [Example 16],92.7%,93.1%,,,,,,,more compatible with calcium than MK7,88 wt %,
